± gives the expanded uncertainty stated by the source.
Conditions: Pendant drop shape

| Structure (SMILES) | surface tension liquid-gas (307.9 K) | surface tension liquid-gas (318.1 K) | surface tension liquid-gas (342.9 K) | surface tension liquid-gas (298.1 K) | surface tension liquid-gas (338.5 K) | surface tension liquid-gas (328 K) | surface tension liquid-gas (343 K) | surface tension liquid-gas (318 K) | also measured |
| --- | --- | --- | --- | --- | --- | --- | --- | --- | --- |
| CCCCn1cc[n+](C)c1.N#CN=C=[N-] [1-butyl-3-methylimidazolium dicyanamide] | 50.3 ± 0.7 mN/m | 49.7 ± 0.7 mN/m | 47.5 ± 0.7 mN/m | – | – | – | – | – | surface tension liquid-gas (298.4 K): 50.6 ± 0.7 mN/m; surface tension liquid-gas (328.4 K): 48.6 ± 0.7 mN/m; surface tension liquid-gas (339 K): 48.1 ± 0.7 mN/m |
| CCCCn1cc[n+](C)c1.N#C[S-] [1-butyl-3-methylimidazolium thiocyanate] | – | 43 ± 0.6 mN/m | 41.6 ± 0.6 mN/m | 44.6 ± 0.7 mN/m | 41.9 ± 0.6 mN/m | – | – | – | surface tension liquid-gas (308.2 K): 43.5 ± 0.7 mN/m; surface tension liquid-gas (328.3 K): 42.4 ± 0.6 mN/m |
| CCn1cc[n+](C)c1.N#C[C-](C#N)C#N [1-ethyl-3-methyl-1H-imidazolium tricyanomethanide] | – | – | – | – | – | 49.1 ± 0.7 mN/m | 47.9 ± 0.7 mN/m | – | surface tension liquid-gas (298.3 K): 51.1 ± 0.7 mN/m; surface tension liquid-gas (308.1 K): 50.7 ± 0.7 mN/m; surface tension liquid-gas (317.9 K): 49.9 ± 0.7 mN/m; surface tension liquid-gas (338.9 K): 48.5 ± 0.7 mN/m |
| CCn1cc[n+](C)c1.N#C[B-](C#N)(C#N)C#N [1-ethyl-3-methylimidazolium tetracyanoborate] | – | – | – | 49.1 ± 0.7 mN/m | – | – | 45.4 ± 0.7 mN/m | 47.4 ± 0.7 mN/m | surface tension liquid-gas (307.8 K): 48.3 ± 0.7 mN/m; surface tension liquid-gas (328.7 K): 46.6 ± 0.7 mN/m; surface tension liquid-gas (338.8 K): 45.8 ± 0.7 mN/m |
| CCCCCCn1cc[n+](C)c1.N#CN=C=[N-] [1-hexyl-3-methylimidazolium dicyanamide] | 42.2 ± 0.6 mN/m | – | – | – | 40.5 ± 0.6 mN/m | – | – | – | surface tension liquid-gas (298 K): 43 ± 0.6 mN/m; surface tension liquid-gas (318.4 K): 41.6 ± 0.6 mN/m; surface tension liquid-gas (328.2 K): 41 ± 0.6 mN/m; surface tension liquid-gas (342.7 K): 40.2 ± 0.6 mN/m |
| CCCCCCn1cc[n+](C)c1.N#C[B-](C#N)(C#N)C#N [1-hexyl-3-methylimidazolium tetracyanoborate] | – | – | 38.2 ± 0.6 mN/m | – | 38.4 ± 0.6 mN/m | 39.2 ± 0.6 mN/m | – | 40 ± 0.6 mN/m | surface tension liquid-gas (298.6 K): 41.5 ± 0.6 mN/m; surface tension liquid-gas (308.4 K): 40.8 ± 0.6 mN/m |

Source: the NIST ThermoML archive (doi:10.1016/j.fluid.2015.10.044)
